Assay results taken from PMC12294753, “Development of INER-PP-F11N as the Peptide-Radionuclide Conjugate Drug Against CCK2 Receptor-Overexpressing Tumors” (International Journal of Molecular Sciences, 2025).
Like-named read-outs stand apart in the source and are kept apart here. Where a SMILES comes first, the peptide text is derived from it. [ ]: non-standard residue; d: D form. The star is where a group is joined. DOTA = O=C(O)CN1CCN(CC(=O)O)CCN(CC(=O)*)CCN(CC(=O)O)CC1; Butanoyl(4-(4-MePh)) = Cc1ccc(CCCC(=O)*)cc1; 4Amb = NCc1ccc(C(=O)O)cc1; Nle = CCCC[C@H](N)C(=O)O

Tests used:
[1] = tested on: human gastric cancer ascites cells; design: method as in PMID 10494457, PMID 10188727; conditions: mouse models inoculated with human gastric cancer ascites cells; cited from earlier work
[2] = tested on: CCK2R; design: method as in PMID 10494457, PMID 10188727; conditions: cited from earlier work
[3] = tested on: human pancreatic cancer cells; design: method as in PMID 10636070, PMID 7813546; conditions: cited from earlier work
[4] = tested on: A431-CCK2R (+) tumors; experiment: Biodistribution study in tumor-bearing mice; assay type: in vivo; conditions: biodistribution studies
Method: (§1) To generate A431-CCK2R (+) and A431-CCK2R (−) tumor-bearing mice models, mice (3 per group) were inoculated subcutaneously with 6 × 10^6 cells, which were injected into the inner right back leg for A431-CCK2R (+) tumors and the left back leg for A431-CCK2R (−) tumors, respectively. These xenografts were monitored until the tumor volume reached approximately 200–500 mm^3 [57]. The mice were then randomized to subgroups for further experiments. The formula for calculating tumor volume (V) is V = 4/3πr^3.
(§2) Mice were sacrificed via CO2 asphyxiation 72 h after intravenous injection of 50–100 μCi (50–100 μL) of radiolabeled DOTA-PP-F11N, DOTA-INER-PP-F11N-1, or DOTA-INER-PP-F11N-2 [58]. Tumors and organs of interest were collected for further pathological examinations. The PerkinElmer 2480 Automatic Gamma Counter (PerkinElmer, Waltham, MA, USA) was used to measure radioactivity; the data are presented as the percentage injected dose per gram of tissue (%ID/g).

[5] = Biodistribution study in tumor-bearing mice; assay type: in vivo; conditions: mouse, intravenous, total radioactivity, 72 h after tail-vein injection, tumor-bearing mice
Method: as §1, §2

[6] = tested on: A431-CCK2R (−)/A431-CCK2R (+) tumor-bearing mice; experiment: NanoSPECT/CT imaging of tumor-bearing mice; assay type: in vivo
Method: as §1
The NanoSPECT/CT® plus scanner system (Mediso Medical Imaging Systems; Budapest, Hungary) was utilized to detect in vivo tumors in the in vivo animal models. Both A431-CCK2R (+) and A431-CCK2R (−) cancer cells were inoculated subcutaneously into the inner right leg and left back leg of the mice. Radiopharmaceuticals—[^111In]In-DOTA-PP-F11N, [^111In]In-DOTA-INER-PP-F11N-1, and [^111In]In-DOTA-INER-PP-F11N-2 (1 mCi)—were injected once the mean tumor volume reached approximately 200–500 mm^3. Inhalant (1–2% isoflurane) was used to anesthetize the mice during imaging acquisition. X-ray CT images and SPECT images were taken 4, 24, and 48 h after tail-vein injection. NanoSPECT imaging was acquired using nine multi-pinhole gamma detectors with high-resolution collimators. The energy window was set at 171 and 245 KeV ± 10%, the image size was set at 256 × 256, and the field of view was set at 60 mm × 100 mm.
For Lu-177, only 208 keV photons were used for imaging, with an energy window set at 208 keV ± 10%. Although Lu-177 also emits lower abundance photons at 113 keV, the 208 keV photon provides better image quality due to reduced scatter and higher energy resolution. Therefore, the gamma camera energy windows were specifically tailored to the photon emission profiles of each radionuclide to ensure optimal detection efficiency and image accuracy.
(§3) We investigated therapeutic responses in mice receiving [^177Lu]Lu-DOTA-PP-F11N, [^177Lu]Lu-DOTA-INER-PP-F11N-1, or [^177Lu]Lu-DOTA-INER-PP-F11N-2. A431-CCK2R (+) and A431-CCK2R (−) cells were implanted subcutaneously into the right and left inner hind legs of NOD/SCID mice. Once the tumors reached a volume of 200–500 mm^3, the mice were intravenously injected with either 200 μCi of [^177Lu]Lu-DOTA-PP-F11N, [^177Lu]Lu-DOTA-INER-PP-F11N-1, [^177Lu]Lu-DOTA-INER-PP-F11N-2, or PBS (as a non-radioactive control). The NanoSPECT/CT® plus scanner system (Mediso Medical Imaging Systems; Budapest, Hungary) was utilized to detect and image tumors in the mouse models. Tumor volumes were measured twice a week for 4 weeks.

[7] = tested on: A431-CCK2R (+) cells; experiment: In vitro binding and internalization assay, A431-CCK2R (+) cells; assay type: cell-based; design: surface binding activity / internalization activity: concentration or dose not given beside the values; conditions: for internalization activity / surface binding activity: A431-CCK2R (+) cells, 37 °C; for enhancement of internalization activity compared with PP-F11N: A431 CCK2R (+) cells, compared with conventional [^177Lu]Lu-DOTA-PP-F11N
Method: (§4) In vitro binding and internalization activities were measured using a gamma counter (WIZARD 1480, Perkin-Elmer). Briefly, A431-CCK2R (+) and A431-CCK2R (−) cells were seeded on 24-well plates (1 × 10^5 cells/well, Corning, NY, USA) for 12 h. The plated cells were treated with 30 ± 10 GBq/µmol of [^177Lu]Lu-DOTA-PP-F11N, [^177Lu]Lu-DOTA-INER-PP-F11N-1, or [^177Lu]Lu-DOTA-INER-PP-F11N-2 (1 mL/well) and then incubated at 37 °C for either 1 or 4 h. After incubation, the medium was collected, and the cells were then washed with ice-cold buffer. The medium and washed PBS were collected in tube 0. The washed cells were treated with glycine–HCl buffer (0.1 M, pH 3.0) and incubated for 10 min. After incubation, cells were washed again with glycine–HCl buffer. Both glycine-HCl buffer solutions were collected in tube 1. The washed cells were treated with 1 N NaOH (1 mL/well) and incubated for 10 min for cell lysis. After incubation, the cells were washed once with 1 N NaOH. The cell lysate solution was collected in tube 2. All tubes were analyzed using a gamma counter to detect radioactivity. Data were obtained from at least three independent experiments. The respective formulae for in vitro surface binding activity and internalization were as follows:Surface binding = tube 1/(tube 0 + tube 1 + tube 2) × 100%.Internalization = tube 2/(tube 0 + tube 1 + tube 2) × 100%.

[8] = Histopathological examinations (H&E) of mice after radiolabeled drug administration; assay type: in vivo; conditions: light microscopy
Description: To investigate the pathological alterations in tumor-bearing mice receiving radiopharmaceuticals, […] tissues, including tumors, heart, liver, and kidneys, were collected. The specimens were first fixed using 10% buffered neutral formalin and then embedded in paraffin. Sections of 3–5 μm thickness were stained with H&E and examined using light microscopy (40 × and 20 ×).

[9] = Metabolic stability analysis (radio-HPLC) in PBS at 4 °C or FBS at 37 °C; assay type: in vitro ADME
Method: DOTA-PP-F11N, DOTA-INER-PP-F11N-1, and DOTA-INER-PP-F11N-2 were labeled with In-111 and Lu-177 for further experiments. The detection of free In-111 after ITLC extension was defined as 0% radiolabeling efficiency. […]
To measure the labeling efficiency, ITLC was performed on glass microfiber chromatography paper impregnated with a silica gel (Agilent Technologies, Santa Clara, CA, USA) as described previously. Briefly, the ITLC sheets were developed with 10% methanol as solvent (Rf free Lu-177 = 0, Rf Lu-177-labeled compounds = 1) and measured using a radioactive scanner (AR-2000 radio-TLC […] Imaging Scanner, Bioscan, France). The sample was mixed with acetonitrile at a 1:1 (v/v) ratio, followed by centrifugation at 16,000× g for 5 min. The resulting supernatant was subsequently analyzed using HPLC with UV (220[…]) and radio detector with a Zorbax SB-C18 column (Agilent Technologies, Santa Clara, CA, USA). The flow rate was 0.8 mL/min, with the gradient mobile phase going from 90% A […] buffer (0.1% TFA in water) and 10% B buffer (0.1% TFA in acetonitrile) to 90% B buffer […] within 20 min.

[10] = tested on: A431-CCK2R (+) tumors; experiment: Therapeutic responses to Lu-177-labeled CCK2R analogs in CCK2R-expressing cancer-bearing mice; assay type: in vivo; conditions: 200 μCi intravenously
Method: as §1, §3

[11] = tested on: A431-CCK2R (−) cells; experiment: In vitro binding and internalization assay, A431-CCK2R (−) cells; assay type: cell-based; conditions: 37 °C
Method: as §4

C[C@](Cc1c[nH]c2ccccc12)(NC(=O)OC1[C@H]2C[C@@H]3C[C@@H](C[C@H]1C3)C2)C(=O)NC[C@H](NC(=O)CCC(=O)O)c1ccccc1 (stereo partly shown) [CI-988]
survival [1]: improve survival
gastrin binding to CCK2R [2]: block gastrin binding to CCK2R

Cc1cccc(NC(=O)N[C@@H]2N=C(c3ccccc3)c3ccccc3N(C)C2=O)c1 [L-365260]
exogenous gastrin-induced proliferation [3]: inhibited

CCCC[C@H](NC(=O)[C@H](Cc1c[nH]c2ccccc12)NC(=O)CNC(=O)[C@H](Cc1ccc(O)cc1)NC(=O)[C@H](C)NC(=O)[C@@H](CCC(=O)O)NC(=O)[C@@H](CCC(=O)O)NC(=O)[C@@H](CCC(=O)O)NC(=O)[C@@H](CCC(=O)O)NC(=O)[C@@H](CCC(=O)O)NC(=O)[C@@H](CCC(=O)O)NC(=O)c1ccc(CNC(=O)[C@H](CCCCNC(=O)CCCc2ccc(C)cc2)NC(=O)CN2CCN(CC(=O)O)CCN(CC(=O)O)CCN(CC(=O)O)CC2)cc1)C(=O)N[C@@H](CC(=O)O)C(=O)N[C@@H](Cc1ccccc1)C(N)=O [[^177Lu]Lu-DOTA-INER-PP-F11N-1, metal not drawn] ({DOTA}-K(Butanoyl(4-(4-MePh)))[4Amb][dE][dE][dE][dE][dE][dE]AYGW[Nle]DF-NH2)
tumor-to-kidney ratio [4]: favorable
tissue uptake at 72 h ([5]; kidneys, read-out: radiotracer accumulation in the kidneys): 7.4 ± 2.3 %ID/g
tissue uptake at 72 h ([5]; tumor (A431-CCK2R (+)), read-out: tumor uptake of radiopharmaceuticals): 1.14 ± 0.92 %ID/g
radioactivity within the kidneys on NanoSPECT/CT ([6]; compared with Lu-177-labeled PP-F11N over the same period): significantly lower
radiotracer accumulation in the tumor region on NanoSPECT/CT ([6]; tail-vein injection, Lu-177-labeled): avid radiotracer uptake within the tumor
internalization activity ([7]; 1 h): 45.32 ± 6.12%
surface binding activity ([7]; 1 h): 5.93 ± 1.68%
internalization activity ([7]; 4 h): 90.49 ± 5.65%
surface binding activity ([7]; 4 h): 14.57 ± 4.06%
enhancement of internalization activity compared with PP-F11N [7]: 26.7%
enhancement of internalization activity compared with PP-F11N ([7]; listed as 177Lu-DOTA-INER-PP-F11N-1): 27%
histopathological changes in the kidneys [8]: no significant histopathological changes
histopathological changes in the liver and heart [8]: no significant histopathological changes
metabolic stability ([9]; 4 °C PBS, 144 h after Lu-177 labeling): more than 95%
metabolic stability ([9]; Lu-177-labeled, 37 °C FBS, 144 h): > 99%
tumor volume at D23 [10]: 841.33 ± 165.70 mm^3
internalization activity ([11]; 1 h): 0.32 ± 0.10 %IA/106 cells
surface binding activity ([11]; 1 h): 1.08 ± 0.49 %IA/106 cells
internalization activity ([11]; 4 h): 0.17 ± 0.03 %IA/106 cells
